Data from ChEMBL document CHEMBL2396648, “Potent suppression of c-di-GMP synthesis via I-site allosteric inhibition of diguanylate cyclases with 2'-F-c-di-GMP” (Bioorg Med Chem, 2013).
Active and inactive are the calls of the source. The rule behind the calls is not given here.

Tests used:
[1] = Competitive binding affinity to Pseudomonas aeruginosa WspR after 5 mins in presence of [32P]-c-di-GMP
[2] = target: T1, Cyclic di-GMP phosphodiesterase RocR (Pseudomonas aeruginosa (strain ATCC 15692 / PAO1 / 1C / PRS 101 / LMG12228), UniProt Q9HX69); assay: Competitive binding affinity to Pseudomonas aeruginosa PAO1 His6-tagged RocR expressed in Escherichia coli BL21 (DE3) after 5 mins in presence of [32P]-c-di-GMP
T1 sequence (Q9HX69 whole entry): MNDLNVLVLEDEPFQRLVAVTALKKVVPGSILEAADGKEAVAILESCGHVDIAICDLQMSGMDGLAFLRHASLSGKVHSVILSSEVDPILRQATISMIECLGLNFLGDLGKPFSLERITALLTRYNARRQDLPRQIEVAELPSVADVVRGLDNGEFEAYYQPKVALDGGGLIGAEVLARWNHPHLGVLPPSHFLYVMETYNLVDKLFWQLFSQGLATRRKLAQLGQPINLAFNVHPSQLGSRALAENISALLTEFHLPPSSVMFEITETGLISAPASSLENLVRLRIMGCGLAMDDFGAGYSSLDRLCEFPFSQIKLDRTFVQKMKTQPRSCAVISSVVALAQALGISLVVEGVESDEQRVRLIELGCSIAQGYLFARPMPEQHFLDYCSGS

[3] = Competitive binding affinity to Pseudomonas aeruginosa Alg44 PilZ domain after 5 mins in presence of [32P]-c-di-GMP
[4] = target: T2, Cyclic di-GMP phosphodiesterase RocR (Pseudomonas aeruginosa (strain ATCC 15692 / PAO1 / 1C / PRS 101 / LMG12228)) (UniProt Q9HX69); assay: Inhibition of Pseudomonas aeruginosa PAO1 His6-tagged RocR expressed in Escherichia coli BL21 (DE3) using [32P]-GTP as substrate at 100 uM after 120 mins by thin layer chromatographic analysis
T2 sequence (whole entry): T1 sequence (Q9HX69 whole entry)

[5] = test system: Pseudomonas aeruginosa PA14; assay: Inhibition of Pseudomonas aeruginosa PA14 PvrR using [32P]-GTP as substrate at 100 uM after 120 mins by thin layer chromatographic analysis
[6] = test system: Pseudomonas aeruginosa PA14; assay: Inhibition of Pseudomonas aeruginosa PA14 diguanylate cyclase PA1107 using [32P]-GTP as substrate at 100 uM after 120 mins by thin layer chromatographic analysis
[7] = Allosteric inhibition of Pseudomonas aeruginosa WspR using [32P]-GTP as substrate measured for 1 hr by thin layer chromatographic analysis
Pseudomonas aeruginosa = assay: Inhibition of Pseudomonas aeruginosa WspR using [32P]-GTP as substrate at 100 uM after 120 mins by thin layer chromatographic analysis

| Compound | IC50 [1] [µM] | IC50 [2] [µM] | IC50 [3] [µM] | inhibition [4] | inhibition [5] | inhibition [6] | Ki [7] [µM] | inhibition (Pseudomonas aeruginosa) |
| --- | --- | --- | --- | --- | --- | --- | --- | --- |
| Nc1nc2c(ncn2[C@H]2C[C@@H]3OP(=O)(O)OC[C@H]4O[C@@H](n5cnc6c(=O)[nH]c(N)nc65)C[C@@H]4OP(=O)(O)OC[C@H]3O2)c(=O)[nH]1 | > 100 | 0.02 | 13.4 |  |  |  |  |  |
| Nc1nc2c(ncn2[C@@H]2O[C@@H]3CO[P@](=O)(O)O[C@H]4[C@@H](O)[C@H](n5cnc6c(=O)[nH]c(N)nc65)O[C@@H]4CO[P@](=O)(O)O[C@H]3[C@H]2O)c(=O)[nH]1 |  | 0.02 |  |  |  |  |  |  |
| CO[C@@H]1[C@@H]2OP(=O)(O)OC[C@H]3O[C@@H](n4cnc5c(=O)[nH]c(N)nc54)[C@H](OC)[C@@H]3OP(=O)(O)OC[C@H]2O[C@H]1n1cnc2c(=O)[nH]c(N)nc21 | > 100 | 6.41 | > 100 |  |  |  |  |  |

Next, values leading:

| IC50 [1] [µM] | IC50 [2] [µM] | IC50 [3] [µM] | inhibition [4] | inhibition [5] | inhibition [6] | Ki [7] [µM] | inhibition (Pseudomonas aeruginosa) | Compound |
| --- | --- | --- | --- | --- | --- | --- | --- | --- |
| 48.9 |  | 7.69 | Active | inactive | Active | 15.4 | Active | Nc1nc2c(ncn2[C@@H]2O[C@@H]3COP(=O)(O)O[C@H]4[C@@H](O)[C@H](n5cnc6c(=O)[nH]c(N)nc65)O[C@@H]4COP(=O)(O)O[C@H]3[C@H]2O)c(=O)[nH]1 |
| 11 | 0.72 | 3.12 | Active | inactive | Active | 12.6 | Active | Nc1nc2c(ncn2[C@@H]2O[C@@H]3COP(=O)(O)O[C@H]4[C@@H](F)[C@H](n5cnc6c(=O)[nH]c(N)nc65)O[C@@H]4COP(=O)(O)O[C@H]3[C@H]2F)c(=O)[nH]1 |
